Earlier results in patent US20070265281A1, “Organic Compounds and Their Uses” (priority 2006, published 2007).

System: HCV
Settings: ribavirin alone

Compound: NC(=O)c1ncn([C@@H]2O[C@H](CO)[C@@H](O)[C@H]2O)n1 [Ribavirin, 1-β-D-ribofuranosyl-1-1,2,4-triazole-3-caroxamide]
- serum levels of HCV-RNA (patients): does not lower
- patients in whom serum amino transferase levels are reduced to normal: 40%
